From patent US10968183B2, “Small molecule FIEL1 inhibitor in inflammatory and fibrotic lung injury” (UNIVERSITY OF PITTSBURGH—OF THE COMMONWEALTH SYSTEM OF …, priority 2015, dated 2021)
Entries after “also recorded” stand apart in the source; their conditions may differ.

Experiments:
[1] = test system: bleomycin-induced lung injury in C57BL/6J mice; experiment: Bleomycin lung fibrosis model in mice; type: in vivo; conditions: estimated 5 mg/kg/d; for lung (pulmonary) fibrosis: 7-21 days
Procedure: (§1) FIG. 7A. […] FIG. 7B. Structures of the BC-1480 backbone and lead compound BC-1485. FIG. 7C. FIEL1 protein was HIS-purified from FIEL1 expression in 293T cells using cobalt beads. Beads were then extensively washed prior to exposure to BC-1480 or BC-1485 at different concentrations (10^−4 to 100 μM). Purified PIAS4 protein was then incubated with drug-bound FIEL1 beads overnight. Beads were washed, and proteins were eluted and resolved on SDS-PAGE. The relative amounts of PIAS4 detected in the pull-downs was normalized to loading and quantified (n=2). FIG. 7D. MLE cells were exposed to BC-1480 or BC-1485 at various concentrations for 18 h. Cells were then collected and immunoblotted. FIGS. 7E-J. C57BL/6J mice were administered with bleomycin (0.05 U) for 7-21 days. Compounds BC-1480 and BC-1485 were given to mice through drinking water with an estimated dose of 5 mg/kg/d. Mice were euthanized, and lungs were lavaged with saline, harvested, and then homogenized. Lavage proteins, CXCL1, and total cell count were measured in FIGS. 7E-G. H. Survival studies of mice that were given bleomycin and compound treatments. Mice were carefully monitored over time; moribund, preterminal animals were immediately euthanized and recorded as deceased. Kaplan-Meier survival curves were generated using SPSS software (p<0.01 compared to Vehicle). Vehicle: n=24, BC-1480: n=13, BC-1485: n=12. FIG. 7I. Hydroxyproline contents were measured in lungs from 7, 14, and 21d after bleomycin challenge. FIG. 7J. Trichrome staining was performed on lung samples from E. Original magnification, ×10. *p<0.05 compared to Vehicle (t-test). Data are an average of two experiments (FIGS. 7E-J, 4-8 mice/group)
C57BL/6J mice were administered i.t. with bleomycin (0.05 U) for 7-21 days. Compounds BC-1480 and BC-1485 were given to mice through drinking water with an estimated dose of 5 mg/kg/d. Mice were then euthanized, and lungs were lavaged with saline, harvested, and then homogenized. Lavage IL-6 was measured in (FIG. 16A). Lavage cells were also processed for Wright-Giemsa stain; Lavage macrophages, neutrophils and lymphocytes were counted and graphed (FIGS. 16B-16D). H&E staining was performed on lung samples from A. Original magnification, ×10. *p<0.05 compared to Vehicle (t test). Data are an average of two experiments (A-E, 4-8 mice/group).
Murine lungs were dried and weighed prior to digestion with HCl. Hydroxyproline concentrations were measuring using methods previously described in Kesava Reddy et al., Clinical Biochemistry, 29(3): 225-229 (1996), and Neuman et al., J. of Biol. Chem., 184(1): 299-306 (1950). Hydroxyproline content was normalized to dry lung weight.
All procedures were approved by the University of Pittsburgh Institutional Animal Care and Use Committee. For fibrosis studies, male C57BL/6J mice were deeply anesthetized using a ketamine/xylazine mixture, and the larynx was well visualized under a fiber optic light source before endotracheal intubation with a 3/400 24-gauge plastic catheter. 10^7 CFU of lentivirus encoding genes for Empty (E), FIEL1, CON shRNA, or KIAA0317 shRNA was given i.t. for 144 h before administration of bleomycin (0.02 U˜0.05 U i.t.) for up to 21 days. Animals were euthanized and assayed for BAL protein, cell count, cytokines, and lung infiltrates. Survival studies were performed on mice that were given bleomycin (0.02 U˜0.05 U i.t.). Mice were carefully monitored over time; moribund, preterminal animals were immediately euthanized and recorded as deceased. For drug studies, mice were deeply anesthetized as above. Bleomycin (0.05 U i.t.) was given i.t. before BC-1480 or BC-1485 (5 mg/kg/d) was administered to the mice through their drinking water. 7-21d later, animals were euthanized and analyzed as above.

FIEL1/PIAS4 interaction = molecular target: T1, FIEL1/PIAS4 interaction (Homo sapiens, UniProt O15033); experiment: In vitro drug binding assay: PIAS4 pull-down on drug-bound FIEL1 beads
T1 construct: made in house; host or cells: 293T cells (FIEL1)
T1 sequence (O15033 1-789 isoform O15033-2): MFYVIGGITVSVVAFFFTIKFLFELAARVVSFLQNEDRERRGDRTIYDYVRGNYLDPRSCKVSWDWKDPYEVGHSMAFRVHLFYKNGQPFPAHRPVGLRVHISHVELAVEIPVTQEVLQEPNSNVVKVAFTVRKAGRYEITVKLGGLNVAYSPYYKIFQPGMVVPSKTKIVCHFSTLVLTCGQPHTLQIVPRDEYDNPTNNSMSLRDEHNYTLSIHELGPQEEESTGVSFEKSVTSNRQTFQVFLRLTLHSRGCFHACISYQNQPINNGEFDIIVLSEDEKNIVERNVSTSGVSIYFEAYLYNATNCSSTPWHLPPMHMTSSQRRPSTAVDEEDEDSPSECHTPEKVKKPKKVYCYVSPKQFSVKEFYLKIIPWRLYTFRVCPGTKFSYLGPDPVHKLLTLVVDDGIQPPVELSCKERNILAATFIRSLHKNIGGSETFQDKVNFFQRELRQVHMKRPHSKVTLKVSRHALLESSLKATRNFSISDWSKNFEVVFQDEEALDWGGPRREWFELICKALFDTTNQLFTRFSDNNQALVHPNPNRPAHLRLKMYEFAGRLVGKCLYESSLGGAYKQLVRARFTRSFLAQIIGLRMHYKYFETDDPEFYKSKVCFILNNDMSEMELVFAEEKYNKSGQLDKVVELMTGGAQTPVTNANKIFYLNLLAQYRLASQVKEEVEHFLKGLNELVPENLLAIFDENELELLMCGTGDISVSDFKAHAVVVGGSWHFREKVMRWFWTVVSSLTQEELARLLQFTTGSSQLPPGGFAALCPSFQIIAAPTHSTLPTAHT
Procedure: as §1
FIEL1 protein was HIS-purified from FIEL1 expression 293T cells using cobalt beads. Beads were then extensively washed prior to exposure to BC-1480 or BC-1485 at different concentrations (10^−4 to 100 μM). Purified recombinant PIAS4 protein was then incubated with drug-bound FIEL1 beads overnight. […] The relative amounts of PIAS4 detected in the pull-downs were normalized to loading and quantified.

JAK/STAT pathway = experiment: JAK/STAT protein immunoblotting in HCT8 cells exposed to DSS or IFNγ; type: cell-based
Procedure: HCT8 cells were pretreated with BC-1485 at different concentrations for 16 h before exposed to DSS (2%, 16 h) or IFNγ (10 ng/ml, 1 h). Cells were collected and assayed for protein immunoblotting.

[2] = bleomycin 0.05 U i.t., up to 21 days, drinking water
[3] = 16 h pretreatment, then DSS 2% 16 h or IFNγ 10 ng/ml 1 h

In the case of `CC(NC(=O)c1ccc(NS(=O)(=O)c2ccc3[nH]c(=O)[nH]c3c2)cc1)C(=O)N(C)C` (centres unmarked) [BC-1485], the lung hydroxyproline content ([1]; 7, 14 and 21 d after bleomycin) is reported as “significant decrease”, the “lung (pulmonary) fibrosis” value ([1]; bleomycin 0.05 U i.t.) is reported as “marked decrease” and the “lung (pulmonary) fibrosis” value ([1]; bleomycin 0.05 U i.t., listed as BC 1485) is reported as “inhibition of pulmonary fibrosis”. The “BAL CXCL1 levels” value [1, 2] was “significantly decreased”, the “BAL IL-6 levels” value [1, 2] was “significantly decreased” and the BAL protein concentrations [1, 2] was “significantly decreased”. For the same molecule, the “BAL total cell counts” value [1, 2] was “significantly decreased”, the survival ([1]; bleomycin 0.05 U i.t., drinking water) was “significantly improved” and the “lung collagen (Mason Trichrome staining)” value ([1]; bleomycin 0.05 U i.t.) was “Decreased”. For the same molecule, the “peribronchiolar and parenchymal fibrosis (H&E)” value ([1]; bleomycin 0.05 U i.t.) was “substantially decreased”, the “activity in disrupting the FIEL1/PIAS4 interaction compared to BC-1480” value (FIEL1/PIAS4 interaction; 10^−4 to 100 μM compound on FIEL1 beads, FIG. 7C) was over 100 fold and the “inhibition of FIEL1 and PIAS4 interaction” value (FIEL1/PIAS4 interaction; FIG. 7) was “inhibition of FIEL1 and PIAS4 interaction”. For the same molecule, the JAK/STAT pathway signaling (JAK/STAT pathway) was “inhibits the signaling transduction; also recorded: inhibits JAK/STAT pathway”, the JAK1 protein level (JAK/STAT pathway; [3]) was “effectively decreases” and the JAK2 protein level (JAK/STAT pathway; [3]) was “effectively decreases”. The p-Stat1 protein level (JAK/STAT pathway; [3]) was “effectively decreases” and the p-Stat3 protein level (JAK/STAT pathway; [3]) was “effectively decreases”.
